Data published in patent US20260022142A1, “MACROCYCLIC IMMUNOMODULATORS” (Bristol-Myers Squibb Company, priority 2022, published 2026).
Numbered stars: 1 amine (or outer) side, 2 acyl side, 3 side chain; on linkers, the order of the positions; unused ones are H or OH. Bridge positions count the residues as written; N and C are the ends. Square brackets hold non-standard residues; d marks the D form. Peptide text beside a SMILES is read from it. * marks the point of attachment. ξ: configuration not given here. Phe(4-CONH2) = NC(=O)c1ccc(C[C@H](N)C(=O)O)cc1; Phe(4-COOH) = N[C@@H](Cc1ccc(C(=O)O)cc1)C(=O)O; Bip = N[C@@H](Cc1ccc(-c2ccccc2)cc1)C(=O)O; NH(CH2)14COOH = O=C(O)CCCCCCCCCCCCCCN*; Phe(3-Me) = Cc1cccc(C[C@H](N)C(=O)O)c1; γGlu = O=C(O)[C@H](CCC(=O)[*:2])N[*:1]; NH(CH2)12COOH = O=C(O)CCCCCCCCCCCCN*; Val(3-OH) = CC(C)(O)[C@H](N)C(=O)O; 3Pal = N[C@@H](Cc1cccnc1)C(=O)O; Cha = N[C@@H](CC1CCCCC1)C(=O)O; Cit = NC(=O)NCCC[C@H](N)C(=O)O; dCha = N[C@H](CC1CCCCC1)C(=O)O; Thr(3ξ) = CC(O)[C@H](N)C(=O)O; Carboxymethyl = O=C(O)C*; Orn = NCCC[C@H](N)C(=O)O; Aun = NCCCCCCCCCCC(=O)O; Dab = NCC[C@H](N)C(=O)O; Dap = NC[C@H](N)C(=O)O; AEEA = NCCOCCOCC(=O)O; ξC = NC(CS)C(=O)O

Each molecule was assayed against T1, PD-1/PD-L1 interaction (PE-labeled human PD-L1-Ig binding to Jurkat cell line over-expressing human PD-1) (Homo sapiens, UniProt Q15116) (assay: Jurkat-PD-1 Cell Binding High-Content Screening Assay (CBA)). Conditions: Jurkat cell line over-expressing human PD-1; PE-labeled PD-L1-Ig 20 nM final; read-out: Jurkat hPD1-PDL1 IC50.
T1 construct: expressed in transfected cells; host or cells: Jurkat
T1 sequence (Q15116 25-288): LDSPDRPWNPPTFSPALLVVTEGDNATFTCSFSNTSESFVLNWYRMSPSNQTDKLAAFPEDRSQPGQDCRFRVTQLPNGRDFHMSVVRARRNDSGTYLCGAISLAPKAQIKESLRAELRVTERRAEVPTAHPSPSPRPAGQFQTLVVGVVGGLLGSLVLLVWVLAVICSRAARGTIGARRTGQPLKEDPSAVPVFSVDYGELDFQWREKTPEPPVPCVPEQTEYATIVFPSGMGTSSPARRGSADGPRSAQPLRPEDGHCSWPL
Assay type: cell-based
Method in brief: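 Read-out is high-content imaging of cell-bound phycoerythrin-tagged PD-L1-Ig on fixed, Hoechst-counterstained Jurkat cells that over-express human PD-1. Compound exposure lasts 2 h at 37° C before the labeled ligand (20 nM final) is added for a further hour.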

| Compound | IC50 |
| --- | --- |
| Cc1cccc(C[C@@H]2NC(=O)[C@H](CC(=O)O)NC(=O)[C@H](Cc3ccc(OCC(=O)O)cc3)NC(=O)[C@H](CN)NC(=O)CSC[C@@H](C(=O)N[C@@H](CCCCN)C(=O)NCCCCCCCCCCC(=O)O)NC(=O)[C@H]([C@@H](C)O)NC(=O)[C@H](C(C)C)NC(=O)[C@H](CC3CCCCC3)NC(=O)[C@H](Cc3cnc[nH]3)NC(=O)[C@@H](CC(C)C)NC(=O)[C@H](CCCN)NC(=O)[C@H](C(C)C)NC(=O)[C@H](Cc3ccc(-c4ccccc4)cc3)NC(=O)[C@H](C(C)C)NC2=O)c1 [Compound 1110] ({CH2CO}-[Dap]Y(Carboxymethyl)D[Phe(3-Me)]V[Bip]V[Orn][dL]H[Cha]VTCK[Aun]-OH; thioether N-14) | 33 nM |
| Cc1cccc(C[C@@H]2NC(=O)[C@H](CC(=O)O)NC(=O)[C@H](Cc3ccc(OCC(=O)O)cc3)NC(=O)[C@H](CCN)NC(=O)CSC[C@@H](C(=O)N[C@H](CC(N)=O)C(=O)NCCCCCCCCCCC(=O)O)NC(=O)[C@H](CO)NC(=O)[C@H](C(C)O)NC(=O)[C@H](CC3CCCCC3)NC(=O)[C@H](CCN)NC(=O)[C@@H](CC(C)C)NC(=O)[C@H](CCCN)NC(=O)[C@H](Cc3ccc(OCC(=O)O)cc3)NC(=O)[C@H](Cc3ccc(-c4ccccc4)cc3)NC(=O)[C@H](Cc3ccc(OCC(=O)O)cc3)NC2=O)c1 (stereo partly drawn) [Compound 3660] ({CH2CO}-[Dab]Y(Carboxymethyl)D[Phe(3-Me)]Y(Carboxymethyl)[Bip]Y(Carboxymethyl)[Orn][dL][Dab][Cha][Thr(3ξ)]SC[dN][Aun]-OH; thioether N-14) | 67.9 nM |
| Cc1cccc(C[C@@H]2NC(=O)[C@H](CC(=O)O)NC(=O)[C@H](Cc3ccc(OCC(=O)O)cc3)NC(=O)[C@H](CCN)NC(=O)CSC[C@@H](C(=O)N[C@@H](CCN)C(=O)NCCOCCOCC(=O)NCCOCCOCC(=O)NCCCCCCCCCCCCCCC(=O)O)NC(=O)[C@H](CO)NC(=O)[C@H](C(C)(C)O)NC(=O)[C@H](CC3CCCCC3)NC(=O)[C@H](CCN)NC(=O)[C@@H](CC(C)C)NC(=O)[C@H](CCCN)NC(=O)[C@H](Cc3ccc(OCC(=O)O)cc3)NC(=O)[C@H](Cc3ccc(-c4ccccc4)cc3)NC(=O)[C@H](Cc3ccc(OCC(=O)O)cc3)NC2=O)c1 [Compound 3815] ({CH2CO}-[Dab]Y(Carboxymethyl)D[Phe(3-Me)]Y(Carboxymethyl)[Bip]Y(Carboxymethyl)[Orn][dL][Dab][Cha][Val(3-OH)]SC[Dab][AEEA][AEEA]-{NH(CH2)14COOH}; thioether N-14) | 21.7 nM |
| CC(C)[C@@H]1NC(=O)[C@H](CC2CCCCC2)NC(=O)[C@H](CCN)NC(=O)[C@@H](CC2CCCCC2)NC(=O)[C@H](CCCN)NC(=O)[C@H](C(C)C)NC(=O)[C@H](Cc2ccc(-c3ccccc3)cc2)NC(=O)[C@H](C(C)C)NC(=O)[C@H](Cc2c[nH]c3ccccc23)NC(=O)[C@H](CC(=O)O)NC(=O)[C@H](Cc2ccc(OCC(=O)O)cc2)NC(=O)[C@H](CN)NC(=O)CSC[C@@H](C(=O)N[C@@H](CCN)C(=O)NCCOCCOCC(=O)NCCCCCCCCCCC(=O)O)NC(=O)[C@H](CCCCN)NC1=O [Compound 2679] ({CH2CO}-[Dap]Y(Carboxymethyl)DWV[Bip]V[Orn][dCha][Dab][Cha]VKC[Dab][AEEA][Aun]-OH; thioether N-14) | 26.9 nM |
| Cc1cccc(C[C@@H]2NC(=O)[C@H](CC(=O)O)NC(=O)[C@H](Cc3ccc(OCC(=O)O)cc3)NC(=O)[C@H](C(C)O)NC(=O)CSCC(C(=O)N[C@@H](CCN)C(=O)NCCCCCCCCCCCCC(=O)O)NC(=O)[C@H](CO)NC(=O)[C@H](C(C)(C)O)NC(=O)[C@H](CC3CCCCC3)NC(=O)[C@H](CCN)NC(=O)[C@@H](CC(C)C)NC(=O)[C@H](CCCN)NC(=O)[C@H](CCCNC(=N)N)NC(=O)[C@H](Cc3ccc(-c4ccccc4)cc3)NC(=O)[C@H](Cc3ccc(O)cc3)NC2=O)c1 (stereo partly drawn) [Compound 3882] ({CH2CO}-[Thr(3ξ)]Y(Carboxymethyl)D[Phe(3-Me)]Y[Bip]R[Orn][dL][Dab][Cha][Val(3-OH)]S[ξC][Dab]-{NH(CH2)12COOH}; thioether N-14) | 26.8 nM |
| Cc1cccc(C[C@@H]2NC(=O)[C@H](CC(=O)O)NC(=O)[C@H](Cc3ccc(OCC(=O)O)cc3)NC(=O)[C@H](CCCNC(=N)N)NC(=O)CSC[C@@H](C(=O)N[C@H](CC(N)=O)C(=O)NCCCCCCCCCCC(=O)O)NC(=O)[C@H](C(C)O)NC(=O)[C@H](C(C)C)NC(=O)[C@H](CC3CCCCC3)NC(=O)[C@H](CCN)NC(=O)[C@@H](CC(C)C)NC(=O)[C@H](CCCNC(N)=O)NC(=O)[C@H](Cc3ccc(OCC(=O)O)cc3)NC(=O)[C@H](Cc3ccc(-c4ccccc4)cc3)NC(=O)[C@H](Cc3ccc(OCC(=O)O)cc3)NC2=O)c1 (stereo partly drawn) [Compound 3498] ({CH2CO}-RY(Carboxymethyl)D[Phe(3-Me)]Y(Carboxymethyl)[Bip]Y(Carboxymethyl)[Cit][dL][Dab][Cha]V[Thr(3ξ)]C[dN][Aun]-OH; thioether N-14) | 47.2 nM |
| Cc1cccc(C[C@@H]2NC(=O)[C@H](CC(=O)O)NC(=O)[C@H](Cc3cccnc3)NC(=O)[C@H](CC(N)=O)NC(=O)CSC[C@@H](C(=O)N[C@@H](CCN)C(=O)NCCCCCCCCCCC(=O)O)NC(=O)[C@H](CCCN)NC(=O)[C@H](C(C)C)NC(=O)[C@H](CC3CCCCC3)NC(=O)[C@H](CCN)NC(=O)[C@@H](CC(C)C)NC(=O)[C@H](CCCN)NC(=O)[C@H](Cc3ccc(O)cc3)NC(=O)[C@H](Cc3ccc(-c4ccccc4)cc3)NC(=O)[C@H](C(C)C)NC2=O)c1 [Compound 2700] ({CH2CO}-N[3Pal]D[Phe(3-Me)]V[Bip]Y[Orn][dL][Dab][Cha]V[Orn]C[Dab][Aun]-OH; thioether N-14) | 17.9 nM |

These reach a lower IC50. Values come first.

| IC50 | Compound |
| --- | --- |
| 15.5 nM | CC(C)C[C@H]1NC(=O)[C@H](CCCN)NC(=O)[C@H](C(C)C)NC(=O)[C@H](Cc2ccc(-c3ccccc3)cc2)NC(=O)[C@H](C(C)C)NC(=O)[C@H](Cc2c[nH]c3ccccc23)NC(=O)[C@H](CC(=O)O)NC(=O)[C@H](Cc2ccc(OCC(=O)O)cc2)NC(=O)[C@H](CN)NC(=O)CSC[C@@H](C(=O)NCCOCCOCC(=O)N[C@@H](CCCCN)C(=O)NCCCCCCCCCCC(=O)O)NC(=O)[C@H](C(C)O)NC(=O)[C@H](C(C)C)NC(=O)[C@H](CC2CCCCC2)NC(=O)[C@H](CC(N)=O)NC1=O (stereo partly drawn) [Compound 3128] ({CH2CO}-[Dap]Y(Carboxymethyl)DWV[Bip]V[Orn][dL]N[Cha]V[Thr(3ξ)]C[AEEA]K[Aun]-OH; thioether N-14) |
| 15.3 nM | CC(C)C[C@H]1NC(=O)[C@H](CCCN)NC(=O)[C@H](C(C)C)NC(=O)[C@H](Cc2ccc(-c3ccccc3)cc2)NC(=O)[C@H](C(C)C)NC(=O)[C@H](Cc2c[nH]c3ccccc23)NC(=O)[C@H](CC(=O)O)NC(=O)[C@H](Cc2ccc(OCC(=O)O)cc2)NC(=O)[C@H](C(C)O)NC(=O)CSC[C@@H](C(=O)N[C@@H](CCN)C(=O)NCCOCCOCC(=O)N[C@@H](CCC(=O)NCCCCCCCCCCC(=O)O)C(=O)O)NC(=O)[C@H](CCCCN)NC(=O)[C@H](C(C)O)NC(=O)[C@H](CC2CCCCC2)NC(=O)[C@H](CCN)NC1=O (stereo partly drawn) [Compound 3663] ({CH2CO}-[Thr(3ξ)]Y(Carboxymethyl)DWV[Bip]V[Orn][dL][Dab][Cha][Thr(3ξ)]KC[Dab][AEEA][γGlu][Aun]-OH; thioether N-14) |
| 12.3 nM | Cc1cccc(C[C@@H]2NC(=O)[C@H](CC(=O)O)NC(=O)[C@H](Cc3ccc(OCC(=O)O)cc3)NC(=O)[C@H](CC(N)=O)NC(=O)CSC[C@@H](C(=O)N[C@@H](CCN)C(=O)NCCCCCCCCCCC(=O)O)NC(=O)[C@H](CO)NC(=O)[C@H](C(C)(C)O)NC(=O)[C@H](CC3CCCCC3)NC(=O)[C@H](CCN)NC(=O)[C@@H](CC(C)C)NC(=O)[C@H](CCCN)NC(=O)[C@H](Cc3ccc(OCC(=O)O)cc3)NC(=O)[C@H](Cc3ccc(-c4ccccc4)cc3)NC(=O)[C@H](Cc3ccc(OCC(=O)O)cc3)NC2=O)c1 [Compound 2220] ({CH2CO}-NY(Carboxymethyl)D[Phe(3-Me)]Y(Carboxymethyl)[Bip]Y(Carboxymethyl)[Orn][dL][Dab][Cha][Val(3-OH)]SC[Dab][Aun]-OH; thioether N-14) |
| 7.7 nM | Cc1cccc(C[C@@H]2NC(=O)[C@H](CC(=O)O)NC(=O)[C@H](Cc3ccc(OCC(=O)O)cc3)NC(=O)[C@H](CCCNC(=N)N)NC(=O)CSC[C@@H](C(=O)N[C@@H](CCN)C(=O)NCCCCCCCCCCC(=O)O)NC(=O)[C@H](CCCNC(N)=O)NC(=O)[C@H](C(C)C)NC(=O)[C@H](CC3CCCCC3)NC(=O)[C@H](CCN)NC(=O)[C@@H](CC(C)C)NC(=O)[C@H](CCCN)NC(=O)[C@H](Cc3ccc(O)cc3)NC(=O)[C@H](Cc3ccc(-c4ccccc4)cc3)NC(=O)[C@H](Cc3ccc(O)cc3)NC2=O)c1 [Compound 2724] ({CH2CO}-RY(Carboxymethyl)D[Phe(3-Me)]Y[Bip]Y[Orn][dL][Dab][Cha]V[Cit]C[Dab][Aun]-OH; thioether N-14) |
| 7.3 nM | CC(C)C[C@H]1NC(=O)[C@H](CCCN)NC(=O)[C@H](C(C)C)NC(=O)[C@H](Cc2ccc(-c3ccccc3)cc2)NC(=O)[C@H](C(C)C)NC(=O)[C@H](Cc2c[nH]c3ccccc23)NC(=O)[C@H](CC(=O)O)NC(=O)[C@H](Cc2ccc(C(=O)O)cc2)NC(=O)[C@H](C(C)O)NC(=O)CSC[C@@H](C(=O)N[C@@H](C)C(=O)NCCOCCOCC(=O)N[C@@H](CCN)C(=O)NCCCCCCCCCCC(=O)O)NC(=O)[C@H](C(C)O)NC(=O)[C@H](C(C)C)NC(=O)[C@H](CC2CCCCC2)NC(=O)[C@H](CCN)NC1=O (stereo partly drawn) [Compound 3022] ({CH2CO}-[Thr(3ξ)][Phe(4-COOH)]DWV[Bip]V[Orn][dL][Dab][Cha]V[Thr(3ξ)]CA[AEEA][Dab][Aun]-OH; thioether N-14) |
| 6 nM | Cc1cccc(C[C@@H]2NC(=O)[C@H](CC(=O)O)NC(=O)[C@H](Cc3ccc(OCC(=O)O)cc3)NC(=O)[C@H](CN)NC(=O)CSC[C@@H](C(=O)N[C@@H](CCN)C(=O)NCCOCCOCC(=O)NCCCCCCCCCCC(=O)O)NC(=O)[C@H](CCCN)NC(=O)[C@H](C(C)C)NC(=O)[C@H](CC3CCCCC3)NC(=O)[C@H](CCN)NC(=O)[C@@H](CC(C)C)NC(=O)[C@H](CCCN)NC(=O)[C@H](Cc3ccc(O)cc3)NC(=O)[C@H](Cc3ccc(-c4ccccc4)cc3)NC(=O)[C@H](Cc3ccc(C(N)=O)cc3)NC2=O)c1 [Compound 2066] ({CH2CO}-[Dap]Y(Carboxymethyl)D[Phe(3-Me)][Phe(4-CONH2)][Bip]Y[Orn][dL][Dab][Cha]V[Orn]C[Dab][AEEA][Aun]-OH; thioether N-14) |
